Test results from BindingDB's records for patent US20250122221 (Nanjing Zaiming Pharmaceutical, 2025).

Molecular target: DNA polymerase theta (Homo sapiens, UniProt O75417)
Assay: POLQ Enzyme Activity Inhibition Assay
Description: The compounds to be tested were diluted to different concentrations in dimethyl sulfoxide (DMSO) using the Echo 650 pipetting system, and transferred to a 384-well plate, 20 μL/well of 100 nM POLQ was added, and the mixture was incubated at room temperature for 15 minutes. […] 20 μL/well of reaction mixture solution was added to start the enzyme reaction. […] The concentration range was from 10 μM to 0.0005 μM, and the final concentration of DMSO in the system was 0.2% v/v. The 384-well plate was reacted at room temperature for 20 minutes, and then the OD value at 340 nm was read with an Envision microplate reader.

DNA polymerase theta, sequence (O75417 whole entry): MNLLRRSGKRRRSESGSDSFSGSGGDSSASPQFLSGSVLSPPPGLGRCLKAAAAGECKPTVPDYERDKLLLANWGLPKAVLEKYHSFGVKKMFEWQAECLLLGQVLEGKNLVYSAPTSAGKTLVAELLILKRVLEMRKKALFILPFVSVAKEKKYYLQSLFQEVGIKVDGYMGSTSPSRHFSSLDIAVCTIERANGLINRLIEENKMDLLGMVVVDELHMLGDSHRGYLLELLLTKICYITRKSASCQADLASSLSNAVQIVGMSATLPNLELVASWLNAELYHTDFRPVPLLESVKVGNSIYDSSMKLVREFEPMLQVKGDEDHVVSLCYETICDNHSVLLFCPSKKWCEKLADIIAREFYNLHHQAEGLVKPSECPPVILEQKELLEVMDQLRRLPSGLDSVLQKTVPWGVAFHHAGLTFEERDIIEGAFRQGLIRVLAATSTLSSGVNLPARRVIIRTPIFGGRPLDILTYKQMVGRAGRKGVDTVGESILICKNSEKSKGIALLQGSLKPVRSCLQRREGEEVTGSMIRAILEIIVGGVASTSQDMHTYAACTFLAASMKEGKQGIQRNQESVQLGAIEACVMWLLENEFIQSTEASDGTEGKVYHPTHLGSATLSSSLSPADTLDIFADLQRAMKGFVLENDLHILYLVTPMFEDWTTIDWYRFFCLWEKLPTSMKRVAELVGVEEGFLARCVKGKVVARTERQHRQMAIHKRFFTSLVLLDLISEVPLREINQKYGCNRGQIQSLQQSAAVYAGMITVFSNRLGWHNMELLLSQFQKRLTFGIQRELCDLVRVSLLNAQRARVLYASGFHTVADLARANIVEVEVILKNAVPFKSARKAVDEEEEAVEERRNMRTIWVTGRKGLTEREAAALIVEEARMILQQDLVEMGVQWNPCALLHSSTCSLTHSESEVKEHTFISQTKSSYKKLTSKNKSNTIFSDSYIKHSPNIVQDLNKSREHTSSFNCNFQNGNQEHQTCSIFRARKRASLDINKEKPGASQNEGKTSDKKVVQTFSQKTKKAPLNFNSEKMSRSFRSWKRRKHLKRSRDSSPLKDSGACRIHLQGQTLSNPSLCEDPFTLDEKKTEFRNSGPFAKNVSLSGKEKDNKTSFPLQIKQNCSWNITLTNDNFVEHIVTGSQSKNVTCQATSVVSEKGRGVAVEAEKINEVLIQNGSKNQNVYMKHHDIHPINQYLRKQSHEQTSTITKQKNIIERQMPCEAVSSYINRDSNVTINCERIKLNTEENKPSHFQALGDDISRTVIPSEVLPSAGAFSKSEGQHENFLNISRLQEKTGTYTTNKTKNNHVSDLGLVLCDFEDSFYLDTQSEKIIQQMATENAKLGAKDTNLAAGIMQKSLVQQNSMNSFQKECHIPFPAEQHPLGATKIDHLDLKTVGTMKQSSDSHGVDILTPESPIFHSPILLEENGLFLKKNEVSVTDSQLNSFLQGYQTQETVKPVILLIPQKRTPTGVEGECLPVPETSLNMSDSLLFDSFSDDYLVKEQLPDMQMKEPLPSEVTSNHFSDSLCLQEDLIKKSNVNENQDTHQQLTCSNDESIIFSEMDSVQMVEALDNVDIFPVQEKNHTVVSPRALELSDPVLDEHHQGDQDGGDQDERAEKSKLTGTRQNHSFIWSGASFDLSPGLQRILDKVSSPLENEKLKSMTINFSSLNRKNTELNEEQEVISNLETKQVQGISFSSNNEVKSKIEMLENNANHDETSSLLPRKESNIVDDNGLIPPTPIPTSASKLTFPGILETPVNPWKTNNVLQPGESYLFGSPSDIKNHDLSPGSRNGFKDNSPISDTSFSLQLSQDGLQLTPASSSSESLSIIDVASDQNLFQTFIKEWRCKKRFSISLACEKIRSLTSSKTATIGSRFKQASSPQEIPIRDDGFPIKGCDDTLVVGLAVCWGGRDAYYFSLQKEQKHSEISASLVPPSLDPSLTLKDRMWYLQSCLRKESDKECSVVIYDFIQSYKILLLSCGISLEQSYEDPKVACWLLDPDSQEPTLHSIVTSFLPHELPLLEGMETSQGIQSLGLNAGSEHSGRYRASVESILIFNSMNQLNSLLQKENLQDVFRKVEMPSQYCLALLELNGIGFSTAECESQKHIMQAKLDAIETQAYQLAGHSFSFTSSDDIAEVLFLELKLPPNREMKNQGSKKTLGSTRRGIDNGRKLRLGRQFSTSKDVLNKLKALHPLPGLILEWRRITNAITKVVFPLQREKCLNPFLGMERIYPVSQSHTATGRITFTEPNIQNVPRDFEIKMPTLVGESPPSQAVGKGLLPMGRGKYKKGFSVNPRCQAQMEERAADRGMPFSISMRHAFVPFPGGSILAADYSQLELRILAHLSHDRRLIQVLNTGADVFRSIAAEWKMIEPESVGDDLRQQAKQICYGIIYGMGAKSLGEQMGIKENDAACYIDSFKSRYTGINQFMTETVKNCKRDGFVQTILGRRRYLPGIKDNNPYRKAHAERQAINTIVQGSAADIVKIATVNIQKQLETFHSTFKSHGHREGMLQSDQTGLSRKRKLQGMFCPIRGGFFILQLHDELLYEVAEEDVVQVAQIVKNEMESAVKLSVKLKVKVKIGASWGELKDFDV

## COc1ccccc1-c1cc2c(cc1C(=O)Nc1nc3ncc(-c4ccc(C#N)cc4)nc3s1)OCO2 [US20250122221, Compound 56]
  IC50: < 100 nM
